Reference: the NIST ThermoML archive (doi:10.1021/je700260f)
± gives the expanded uncertainty stated by the source.

Settings: 313.15 K, Liquid, Vibrating tube method

FC(C(F)(F)F)C(F)(F)F [1,1,1,2,3,3,3-heptafluoropropane]
mass density (13017 kPa): 1415.6 ± 1.6 kg/m3
mass density (13123 kPa): 1416.2 ± 1.6 kg/m3
mass density (13155 kPa): 1416.3 ± 1.6 kg/m3
mass density (13192 kPa): 1416.5 ± 1.6 kg/m3
mass density (13220 kPa): 1416.6 ± 1.6 kg/m3
mass density (13252 kPa): 1417 ± 1.6 kg/m3
mass density (13275 kPa): 1417.1 ± 1.6 kg/m3
mass density (13311 kPa): 1417.3 ± 1.6 kg/m3
mass density (13338 kPa): 1417.4 ± 1.6 kg/m3
mass density (13374 kPa): 1417.6 ± 1.6 kg/m3
mass density (13406 kPa): 1417.6 ± 1.6 kg/m3
mass density (13443 kPa): 1418 ± 1.6 kg/m3
mass density (13476 kPa): 1418.1 ± 1.6 kg/m3
mass density (13514 kPa): 1418.3 ± 1.6 kg/m3
mass density (13538 kPa): 1418.3 ± 1.6 kg/m3
mass density (13572 kPa): 1418.6 ± 1.6 kg/m3
mass density (13615 kPa): 1418.9 ± 1.6 kg/m3
mass density (13653 kPa): 1419.1 ± 1.6 kg/m3
mass density (13686 kPa): 1419.4 ± 1.6 kg/m3
mass density (13729 kPa): 1419.6 ± 1.6 kg/m3
mass density (13757 kPa): 1419.6 ± 1.6 kg/m3
mass density (13800 kPa): 1419.9 ± 1.6 kg/m3
mass density (13833 kPa): 1420.1 ± 1.6 kg/m3
mass density (13862 kPa): 1420.3 ± 1.6 kg/m3
mass density (13891 kPa): 1420.4 ± 1.6 kg/m3
mass density (13925 kPa): 1420.6 ± 1.6 kg/m3
mass density (13959 kPa): 1420.6 ± 1.6 kg/m3
mass density (13998 kPa): 1420.9 ± 1.6 kg/m3
mass density (14038 kPa): 1421.2 ± 1.6 kg/m3
mass density (14071 kPa): 1421.4 ± 1.6 kg/m3
mass density (14109 kPa): 1421.6 ± 1.6 kg/m3
mass density (14152 kPa): 1421.9 ± 1.6 kg/m3
mass density (14190 kPa): 1422 ± 1.6 kg/m3
mass density (14230 kPa): 1422.4 ± 1.6 kg/m3
mass density (14386 kPa): 1422.9 ± 1.6 kg/m3
mass density (14416 kPa): 1423.1 ± 1.6 kg/m3
mass density (14459 kPa): 1423.5 ± 1.6 kg/m3
mass density (14490 kPa): 1423.7 ± 1.6 kg/m3
mass density (14534 kPa): 1423.8 ± 1.6 kg/m3
mass density (14559 kPa): 1423.9 ± 1.6 kg/m3
mass density (14599 kPa): 1424.1 ± 1.6 kg/m3
mass density (14628 kPa): 1424.3 ± 1.6 kg/m3
mass density (14673 kPa): 1424.6 ± 1.6 kg/m3
mass density (14708 kPa): 1424.9 ± 1.6 kg/m3
mass density (14737 kPa): 1424.9 ± 1.6 kg/m3
mass density (14767 kPa): 1425 ± 1.6 kg/m3
mass density (14796 kPa): 1425.3 ± 1.6 kg/m3
mass density (14836 kPa): 1425.4 ± 1.6 kg/m3
mass density (14865 kPa): 1425.6 ± 1.6 kg/m3
mass density (14904 kPa): 1425.8 ± 1.6 kg/m3
mass density (14933 kPa): 1425.9 ± 1.6 kg/m3
mass density (14966 kPa): 1426.1 ± 1.6 kg/m3
mass density (14996 kPa): 1426.1 ± 1.6 kg/m3
mass density (15036 kPa): 1426.5 ± 1.6 kg/m3
mass density (15063 kPa): 1426.5 ± 1.6 kg/m3
mass density (15093 kPa): 1426.7 ± 1.6 kg/m3
mass density (15124 kPa): 1426.9 ± 1.6 kg/m3
mass density (15155 kPa): 1427 ± 1.6 kg/m3
mass density (15184 kPa): 1427.2 ± 1.6 kg/m3
mass density (15210 kPa): 1427.4 ± 1.6 kg/m3
mass density (15246 kPa): 1427.5 ± 1.6 kg/m3
mass density (15282 kPa): 1427.7 ± 1.6 kg/m3
mass density (15313 kPa): 1428.1 ± 1.6 kg/m3
mass density (15346 kPa): 1427.9 ± 1.6 kg/m3
mass density (15372 kPa): 1428.3 ± 1.6 kg/m3
mass density (15412 kPa): 1428.5 ± 1.6 kg/m3
mass density (15443 kPa): 1428.6 ± 1.6 kg/m3
mass density (15484 kPa): 1428.7 ± 1.6 kg/m3
mass density (15512 kPa): 1429 ± 1.6 kg/m3
mass density (15540 kPa): 1429 ± 1.6 kg/m3
mass density (15570 kPa): 1429.3 ± 1.6 kg/m3
mass density (15597 kPa): 1429.5 ± 1.6 kg/m3
mass density (15629 kPa): 1429.6 ± 1.6 kg/m3
mass density (15661 kPa): 1429.7 ± 1.6 kg/m3
mass density (15703 kPa): 1429.9 ± 1.6 kg/m3
mass density (15744 kPa): 1430 ± 1.6 kg/m3
mass density (15771 kPa): 1430.2 ± 1.6 kg/m3
mass density (15813 kPa): 1430.6 ± 1.6 kg/m3
mass density (15845 kPa): 1430.6 ± 1.6 kg/m3
mass density (15887 kPa): 1430.9 ± 1.6 kg/m3
mass density (15924 kPa): 1431.2 ± 1.6 kg/m3
mass density (15947 kPa): 1431.2 ± 1.6 kg/m3
mass density (15988 kPa): 1431.4 ± 1.6 kg/m3
mass density (16024 kPa): 1431.6 ± 1.6 kg/m3
mass density (16051 kPa): 1431.6 ± 1.6 kg/m3
mass density (16091 kPa): 1431.9 ± 1.6 kg/m3
mass density (16136 kPa): 1432.1 ± 1.6 kg/m3
mass density (16169 kPa): 1432.2 ± 1.6 kg/m3
mass density (16230 kPa): 1432.6 ± 1.6 kg/m3
mass density (16290 kPa): 1432.9 ± 1.6 kg/m3
mass density (16326 kPa): 1433 ± 1.6 kg/m3
mass density (16358 kPa): 1433.3 ± 1.6 kg/m3
mass density (16395 kPa): 1433.5 ± 1.6 kg/m3
mass density (16436 kPa): 1433.6 ± 1.6 kg/m3
mass density (16468 kPa): 1433.7 ± 1.6 kg/m3
mass density (16504 kPa): 1434 ± 1.6 kg/m3
mass density (16582 kPa): 1434.4 ± 1.6 kg/m3
mass density (16615 kPa): 1434.6 ± 1.6 kg/m3
mass density (16652 kPa): 1434.6 ± 1.6 kg/m3
mass density (16709 kPa): 1435 ± 1.6 kg/m3
mass density (16737 kPa): 1434.9 ± 1.6 kg/m3
mass density (16807 kPa): 1435.4 ± 1.6 kg/m3
mass density (16839 kPa): 1435.5 ± 1.6 kg/m3
mass density (16867 kPa): 1435.7 ± 1.6 kg/m3
mass density (16905 kPa): 1436.1 ± 1.6 kg/m3
mass density (16942 kPa): 1436.1 ± 1.6 kg/m3
mass density (16974 kPa): 1436.3 ± 1.6 kg/m3
mass density (17006 kPa): 1436.5 ± 1.6 kg/m3
mass density (17039 kPa): 1436.6 ± 1.6 kg/m3
mass density (17075 kPa): 1436.8 ± 1.6 kg/m3
mass density (17104 kPa): 1436.8 ± 1.6 kg/m3
mass density (17132 kPa): 1437.2 ± 1.6 kg/m3
mass density (17165 kPa): 1437.3 ± 1.6 kg/m3
mass density (17197 kPa): 1437.3 ± 1.6 kg/m3
mass density (17235 kPa): 1437.5 ± 1.6 kg/m3
mass density (17267 kPa): 1437.6 ± 1.6 kg/m3
mass density (17294 kPa): 1437.8 ± 1.6 kg/m3
mass density (17334 kPa): 1438 ± 1.6 kg/m3
mass density (17360 kPa): 1438.1 ± 1.6 kg/m3
mass density (17392 kPa): 1438.3 ± 1.6 kg/m3
mass density (17427 kPa): 1438.5 ± 1.6 kg/m3
mass density (17459 kPa): 1438.7 ± 1.6 kg/m3
mass density (17496 kPa): 1438.9 ± 1.6 kg/m3
mass density (17519 kPa): 1439 ± 1.6 kg/m3
mass density (17551 kPa): 1439.2 ± 1.6 kg/m3
mass density (17575 kPa): 1439.3 ± 1.6 kg/m3
mass density (17616 kPa): 1439.4 ± 1.6 kg/m3
mass density (17652 kPa): 1439.6 ± 1.6 kg/m3
mass density (17684 kPa): 1439.7 ± 1.6 kg/m3
mass density (17711 kPa): 1440 ± 1.6 kg/m3
mass density (17743 kPa): 1440 ± 1.6 kg/m3
mass density (17775 kPa): 1440.1 ± 1.6 kg/m3
mass density (17811 kPa): 1440.3 ± 1.6 kg/m3
mass density (17839 kPa): 1440.4 ± 1.6 kg/m3
mass density (17877 kPa): 1440.6 ± 1.6 kg/m3
mass density (17906 kPa): 1440.8 ± 1.6 kg/m3
mass density (17943 kPa): 1440.9 ± 1.6 kg/m3
mass density (17971 kPa): 1441.1 ± 1.6 kg/m3
mass density (18008 kPa): 1441.2 ± 1.6 kg/m3
mass density (18041 kPa): 1441.4 ± 1.6 kg/m3
mass density (18077 kPa): 1441.6 ± 1.6 kg/m3
mass density (18110 kPa): 1441.7 ± 1.6 kg/m3
mass density (18143 kPa): 1442 ± 1.6 kg/m3
mass density (18176 kPa): 1442.1 ± 1.6 kg/m3
mass density (18204 kPa): 1442.2 ± 1.6 kg/m3
mass density (18242 kPa): 1442.3 ± 1.6 kg/m3
mass density (18277 kPa): 1442.6 ± 1.6 kg/m3
mass density (18309 kPa): 1442.7 ± 1.6 kg/m3
mass density (18337 kPa): 1442.8 ± 1.6 kg/m3
mass density (18375 kPa): 1443 ± 1.6 kg/m3
mass density (18403 kPa): 1443.1 ± 1.6 kg/m3
mass density (18441 kPa): 1443.2 ± 1.6 kg/m3
mass density (18469 kPa): 1443.5 ± 1.6 kg/m3
mass density (18507 kPa): 1443.6 ± 1.6 kg/m3
mass density (18691 kPa): 1444.6 ± 1.6 kg/m3
mass density (18725 kPa): 1444.7 ± 1.6 kg/m3
mass density (18755 kPa): 1444.7 ± 1.6 kg/m3
mass density (18796 kPa): 1444.9 ± 1.6 kg/m3
mass density (18830 kPa): 1445 ± 1.6 kg/m3
mass density (18875 kPa): 1445.3 ± 1.6 kg/m3
mass density (18905 kPa): 1445.6 ± 1.6 kg/m3
mass density (18955 kPa): 1445.7 ± 1.6 kg/m3
mass density (18985 kPa): 1445.8 ± 1.6 kg/m3
mass density (19031 kPa): 1445.9 ± 1.6 kg/m3
mass density (19066 kPa): 1446.1 ± 1.6 kg/m3
mass density (19107 kPa): 1446.4 ± 1.6 kg/m3
mass density (19137 kPa): 1446.6 ± 1.6 kg/m3
mass density (19178 kPa): 1446.8 ± 1.6 kg/m3
mass density (19218 kPa): 1446.9 ± 1.6 kg/m3
mass density (19263 kPa): 1447.2 ± 1.6 kg/m3
mass density (19293 kPa): 1447.3 ± 1.6 kg/m3
mass density (19333 kPa): 1447.5 ± 1.6 kg/m3
mass density (19378 kPa): 1447.6 ± 1.6 kg/m3
mass density (19412 kPa): 1447.8 ± 1.6 kg/m3
mass density (19441 kPa): 1448 ± 1.6 kg/m3
mass density (19476 kPa): 1448.1 ± 1.6 kg/m3
mass density (19522 kPa): 1448.4 ± 1.6 kg/m3
mass density (19553 kPa): 1448.5 ± 1.6 kg/m3
mass density (19589 kPa): 1448.7 ± 1.6 kg/m3
mass density (19625 kPa): 1448.9 ± 1.6 kg/m3
mass density (19669 kPa): 1448.9 ± 1.6 kg/m3
mass density (19710 kPa): 1449.1 ± 1.6 kg/m3
mass density (19750 kPa): 1449.4 ± 1.6 kg/m3
mass density (19781 kPa): 1449.5 ± 1.6 kg/m3
mass density (19822 kPa): 1449.6 ± 1.6 kg/m3
mass density (19858 kPa): 1449.8 ± 1.6 kg/m3
mass density (19893 kPa): 1450 ± 1.6 kg/m3
mass density (19930 kPa): 1450.1 ± 1.6 kg/m3
mass density (19961 kPa): 1450.3 ± 1.6 kg/m3
mass density (19996 kPa): 1450.4 ± 1.6 kg/m3
mass density (20037 kPa): 1450.7 ± 1.6 kg/m3
mass density (20072 kPa): 1450.8 ± 1.6 kg/m3
mass density (20108 kPa): 1450.8 ± 1.6 kg/m3
mass density (20144 kPa): 1451.1 ± 1.6 kg/m3
mass density (20180 kPa): 1451.2 ± 1.6 kg/m3
mass density (20221 kPa): 1451.4 ± 1.6 kg/m3
mass density (20257 kPa): 1451.5 ± 1.6 kg/m3
mass density (20293 kPa): 1451.8 ± 1.6 kg/m3
mass density (20324 kPa): 1451.8 ± 1.6 kg/m3
mass density (20366 kPa): 1452 ± 1.6 kg/m3
mass density (20397 kPa): 1452.3 ± 1.6 kg/m3
mass density (20433 kPa): 1452.4 ± 1.6 kg/m3
mass density (20464 kPa): 1452.6 ± 1.6 kg/m3
mass density (20500 kPa): 1452.8 ± 1.6 kg/m3
mass density (20530 kPa): 1452.8 ± 1.6 kg/m3
